Data taken from patent publication US3954227A, “Pharmaceutical compositions containing 1-(2',3'-dimethylphenoxy)-3-tert. butylamino-2-propanol or pharmaceutically acceptable salt thereof for treating or preventing coronary disorders” (Teikoku Hormone Mfg. Co., Ltd., priority 1969, dated 1976).
“Also recorded” adds a separate entry of the source. Read-outs that look alike come from different tables or passages of the source.

Key:
mouse [1] = test: Behavior analysis, mouse (simplified Irwin's multidimensional method); conditions: 4 hours observation
From the text: (§1) The effects of chemicals on the behavior of mouse was examined by a simplified method of Irwin's multidimensional behavior analysis method.

[2] = oral; cited from earlier work
rat [3] = test: Behavior analysis, rat; conditions: 4 hours observation
Experimental: (§2) The chemical to be tested was administered orally, and observations of the behaviors of the rats were carried out for 4 hours after administration of the chemical.
One group consisted of three rats.

angina pectoris patients = test: Clinical test: bicycle ergometer exercise test in angina pectoris patients, double blind cross over; type: in vivo, human; design: Change in heart rate b)-a): unit not given here; conditions: for Change in heart rate b)-a) / Exercise time / a) Heart rate before exercise / b) Heart rate after exercise: compound A 5 mg twice daily, PROPRANOLOL 40 mg × 2, third day; for b) Heart rate after exercise: in beats/min (unit assumed)
Experimental: A test was then conducted on the third day 3 hours after the first administration. […] The test was carried out by the double blind method with a cross over test having a rest period of 10 days. The test method consisted of an exercise test utilizing a bicycle ergometer. After measuring the heart rates of the patients before starting the test, the patients were made to pedal the bicycle ergometer until they were seized with an attack of anginal pain, the effectiveness of the chemicals being judged by the time up to the attack and the heart rate at that time.

rat [4] = conditions: orally
rat [5] = test: Degree of safety (ratio of side reaction or lethal dosage to effective dosage), rat; conditions: in vivo, po
dog [6] = test: Degree of safety (ratio of side reaction or lethal dosage to effective dosage), dog; conditions: in vivo, po
rat [7] = conditions: in vivo, 240 min
Experimental: as §2
One group consisted of three rats.

[8] = system: beta-adrenergic (heart rate increase due to ISOPROTERENOL); test: Beta-adrenergic blocking activity in the case of intravenous injection, rat (antagonism to heart rate increase due to ISOPROTERENOL); type: in vivo, rat (Wistar)
Experimental: 1. Beta-adrenergic blocking activity in the case of intravenous injection (Antagonism to heart rate increase due to ISOPROTERENOL)
a. Male rats of Wistar strain weighing ca. 300 grams were anesthetized with PENTOBARBITAL-Na (60 mg/kg i.p.), after which they are secured in a supine position. The electrocardiogram was registered in the second lead, on a polygraph. ISOPROTERENOL (0.1 μg/kg) was administered through the left femoral vein at 7-minute intervals.
The heart rate increase for the first two times was averaged and used as control.
The antagonistic chemical was intravenously injected from the third time the ISOPROTERENOL was administered, the administration being performed cumulatively and sequentially in the amounts of respectively 6.25, 25, 100 . . . μg/kg invariably at a point 2 minutes before each administration of ISOPROTERENOL until the effects thereof practically disappeared.

dog [9] = conditions: orally
mouse [10] = conditions: in vivo, 240 min
From the text: as §1

heart rate [11] = test: Heart rate drop at the dosage required for manifestation of beta-adrenergic blocking activity, rat; type: in vivo
heart rate [12] = test: Effect on heart rate (general statements); type: in vivo
heart rate [13] = test: Heart rate drop at the dosage required for manifestation of beta-adrenergic blocking activity, dog; type: in vivo
[14] = in vivo
heart rate [15] = test: Change in heart rate at the dosage required for manifestation of the beta-adrenergic blocking activity (Table 2); type: in vivo
beta-adrenergic = test: Beta-adrenergic blocking activity of metabolites (Table 2); type: in vivo; conditions: for Beta-adrenergic blocking activity compared with PROPRANOLOL, in words: in vivo

CC(C)NCC(O)COc1cccc2ccccc12 (stereo not shown) [PROPRANOLOL, 1-naphthoxy-3-isopropylamino-2-propanol, reference compound]
Dose at which effects appeared from the standpoints of behavior analysis (PO) (mouse [1]): 100 mg
Metabolized when orally administered [2]: 90%
Dose at which effects appeared from the standpoints of behavior analysis (PO) (rat [3]): 25 mg
Change in heart rate b)-a) (angina pectoris patients; Case No. 1): 35
Exercise time (angina pectoris patients; Case No. 1): 134 s
a) Heart rate before exercise (angina pectoris patients; Case No. 1): 74 beats/min
b) Heart rate after exercise (angina pectoris patients; Case No. 1): 109
Change in heart rate b)-a) (angina pectoris patients; Case No. 2): 27
Exercise time (angina pectoris patients; Case No. 2): 146 s
a) Heart rate before exercise (angina pectoris patients; Case No. 2): 69 beats/min
b) Heart rate after exercise (angina pectoris patients; Case No. 2): 96
Change in heart rate b)-a) (angina pectoris patients; Case No. 3): 27
Exercise time (angina pectoris patients; Case No. 3): 102 s
a) Heart rate before exercise (angina pectoris patients; Case No. 3): 75 beats/min
b) Heart rate after exercise (angina pectoris patients; Case No. 3): 102
Change in heart rate b)-a) (angina pectoris patients; Mean of 3 cases): 29.7
Exercise time (angina pectoris patients; Mean of 3 cases): 127.3 s
a) Heart rate before exercise (angina pectoris patients; Mean of 3 cases): 72.7 beats/min
b) Heart rate after exercise (angina pectoris patients; Mean of 3 cases): 102.3
Suppression of the heart rate vs placebo, in words (angina pectoris patients; as compared with the placebo): marked suppression of the heart rate

Cc1cccc(OCC(O)CNC(C)(C)C)c1C (stereo not shown) [compound A, 1-(2',3'-dimethylphenoxy)-3-tert. butylamino-2-propanol]
LD50 (rat [4]): 580 mg
Degree of safety, times that of PROPRANOLOL (rat [5]): about 14 times
Degree of safety, times that of PROPRANOLOL (dog [6]): more than 16 times
Dose at which effects appeared from the standpoints of behavior analysis (PO) (rat [7]): 50 mg
Relative effectiveness iv (beta-adrenergic blocking activity, PROPRANOLOL = 1.0) [8]: 2
LD50 (dog [9]): 300 mg
Dose at which effects appeared from the standpoints of behavior analysis (PO) (mouse [10]): 200 mg
Heart rate % drop at the dosage required for manifestation of beta-adrenergic blocking activity [ED50] (heart rate [11]; PO): 4%
Heart rate drop at the dosage required for manifestation of beta-adrenergic blocking activity [ED50] (heart rate [11]; PO): 15 No/min.
Heart rate % drop at the dosage required for manifestation of beta-adrenergic blocking activity [ED50] (heart rate [11]; iv): 15%
Heart rate drop at the dosage required for manifestation of beta-adrenergic blocking activity [ED50] (heart rate [11]; iv): 55 No/min.
Change in heart rate b)-a) (angina pectoris patients; Case No. 1): 17
Exercise time (angina pectoris patients; Case No. 1): 187 s
a) Heart rate before exercise (angina pectoris patients; Case No. 1): 81 beats/min
b) Heart rate after exercise (angina pectoris patients; Case No. 1): 98
Change in heart rate b)-a) (angina pectoris patients; Case No. 2): 20
Exercise time (angina pectoris patients; Case No. 2): 203 s
a) Heart rate before exercise (angina pectoris patients; Case No. 2): 76 beats/min
b) Heart rate after exercise (angina pectoris patients; Case No. 2): 96
Change in heart rate b)-a) (angina pectoris patients; Case No. 3): 19
Exercise time (angina pectoris patients; Case No. 3): 144 s
a) Heart rate before exercise (angina pectoris patients; Case No. 3): 84 beats/min
b) Heart rate after exercise (angina pectoris patients; Case No. 3): 103
Change in heart rate b)-a) (angina pectoris patients; Mean of 3 cases): 18.7
Exercise time (angina pectoris patients; Mean of 3 cases): 178.0 s
a) Heart rate before exercise (angina pectoris patients; Mean of 3 cases): 80.3 beats/min
b) Heart rate after exercise (angina pectoris patients; Mean of 3 cases): 99.0
Exercise time up to attack with anginal pains vs placebo, in words (angina pectoris patients; as compared with the placebo): increases the exercise time up to the time the attack with anginal pains takes place
Increase in the heart rate due to the exercise vs placebo, in words (angina pectoris patients; as compared with the placebo): suppresses the increase in the heart rate due to the exercise
Suppression of the heart rate vs placebo, in words (angina pectoris patients; as compared with the placebo): practically no suppression of the heart rate
Effectiveness compared with PROPRANOLOL, in words (angina pectoris patients; human, in vivo): far greater than that of PROPRANOLOL
Effect on heart rate, in words (heart rate [12]; injection): high decrease in heart rate; also recorded: a drop in heart rate likewise takes place
Effect on heart rate, in words (heart rate [12]; oral / intestinal absorption route): the normal heart rate is hardly affected at all; also recorded: practically no change in heart rate; also recorded: without hardly any effect on the heart rate
Heart rate % drop at the dosage required for manifestation of beta-adrenergic blocking activity [ED50] (heart rate [13]; PO): 2%
Heart rate drop at the dosage required for manifestation of beta-adrenergic blocking activity [ED50] (heart rate [13]; PO): 3 No/min.
Heart rate % drop at the dosage required for manifestation of beta-adrenergic blocking activity [ED50] (heart rate [13]; iv): 16%
Heart rate drop at the dosage required for manifestation of beta-adrenergic blocking activity [ED50] (heart rate [13]; iv): 23 No/min.
Degree of safety compared with the other similar compounds [14]: 7-20 times

Cc1c(O)ccc(OCC(O)CNC(C)(C)C)c1C (stereo not shown) [compound B]
Action of suppressing the heart rate compared with PROPRANOLOL, in words (heart rate [15]; in vivo): lower action of suppressing the heart rate and lesser side reactions
Change in heart rate at the dosage required for manifestation of the beta-adrenergic blocking activity (heart rate [15]; in vivo): +10 No./min.
Change in heart rate, % increase, at the dosage required for manifestation of the beta-adrenergic blocking activity (heart rate [15]; increase): 3%
Change in heart rate by injection, in words (heart rate [15]): small
Relative beta-adrenergic blocking effectiveness as compared to PROPRANOLOL (beta-adrenergic; i.v.): 5.5
Beta-adrenergic blocking activity compared with PROPRANOLOL, in words (beta-adrenergic): higher beta-adrenergic blocking activity than PROPRANOLOL
Relative beta-adrenergic blocking effectiveness as compared to PROPRANOLOL (beta-adrenergic; p.o.): 2.5

Cc1c(CO)cccc1OCC(O)CNC(C)(C)C (stereo not shown) [compound C]
Action of suppressing the heart rate compared with PROPRANOLOL, in words (heart rate [15]; in vivo): lower action of suppressing the heart rate and lesser side reactions
Change in heart rate by injection, in words (heart rate [15]): small
Relative beta-adrenergic blocking effectiveness as compared to PROPRANOLOL (beta-adrenergic; i.v.): 4.5
Beta-adrenergic blocking activity compared with PROPRANOLOL, in words (beta-adrenergic): higher beta-adrenergic blocking activity than PROPRANOLOL
Relative beta-adrenergic blocking effectiveness as compared to PROPRANOLOL (beta-adrenergic; p.o.): 4.0
